According to US20260250291A1, “INHIBITORS OF FGFR2 AND FGFR3 AND USES THEREOF” (Insilico Medicine IP Limited, priority 2023, published 2026):

Experiments:
FGFR2 = molecular target: T1, FGFR2 (Homo sapiens, UniProt P21802); test: FGFR biochemical assay (LanthaScreen TR-FRET), FGFR2; settings: ATP 22 μM, FGFR2 0.01 nM
T1 construct: purchased Carna
Experimental: (§1) The following procedure was used to test the compounds described herein: • Dilute the test compounds to 100× of the final desired highest concentration in reaction by 100% DMSO. • Perform a serial dilution in a 384-well source plate by transferring 15 μL to 30 μL of […] DMSO in the next well and so forth for a total of 10 concentrations. • Dispense 100 nL of compound solution each well from the source plate to a 384-well assay plate in duplicates by Echo (Labcyte). • Prepare a solution of 2× FGFR enzyme (Carna) in kinase buffer (50 mM HEPES, pH 7.5, 10 mM MgCl2, 4 mM DTT, 0.01% Tween-20 and 0.01% BSA). The final concentration of FGFR1/2/3/4 is 0.01. 0.01, 0.1 and 1 nM, respectively. • Add 5 μL of kinase solution to each well of the compound-containing assay plate, except for low control wells without enzyme (add 5 μL of 1× kinase buffer instead). • Shake the plate and incubate at room temperature for 10 minutes (for Example 1) (or 60 min for the remaining Examples in Table 4). • Prepare the substrate solution of Fluorescein-Poly GT (Invitrogen) and ATP (Sigma) in 1× kinase reaction buffer at 2-fold of the final concentration of each reagent desired in the assay (final concentration of ATP is 28, 22, 35 and 238 μM for FGFR1/2/3/4 respectively; Fluorescein-Poly GT is fixed at 20 nM). • Add 5 μL of substrate solution to each well of the assay plate to initiate the kinase reaction. • Shake the plate shortly and incubate at room temperature for 30 minutes. • Prepare 2× detection solution in Antibody Dilution Buffer (LanthaScreen® Tb—PY20 Antibody Kit, Invitrogen). • Add 10 μL of detection solution to each well of the assay plate to stop the reaction. • Mix briefly with centrifuge and incubate at room temperature for 60 minutes before reading on a microplate reader. • Collect data on Envision with excitation at 340 nm and emission at 520 nm and 495 nm. • Calculate Ratio of RFU 520 nm/RFU 495 nm. Convert Ratio values to percent inhibition values (Percent inhibition=(max−sample Ratio)/(max−min)*100) where “min” means the Ratio of no enzyme control and “max” means the Ratio of DMSO control. • Data are analyzed and curve fitting is performed by XLFit Excel add-in version 5.4.0.8. The IC50 calculation equation is: Y=Bottom+(Top−Bottom)/(1+(IC50/X)^HillSlope.

FGFR3 = molecular target: T2, FGFR3 (Homo sapiens, UniProt P22607); test: FGFR biochemical assay (LanthaScreen TR-FRET), FGFR3; settings: ATP 35 μM, FGFR3 0.1 nM
T2 construct: purchased Carna
Experimental: as §1

FGFR1 = molecular target: T3, FGFR1 (Homo sapiens, UniProt P11362); test: FGFR biochemical assay (LanthaScreen TR-FRET), FGFR1; settings: ATP 28 μM, FGFR1 0.01 nM
T3 construct: purchased Carna
Experimental: as §1

RT4 (FGFR3) = test: Cellular proliferation assay (CellTiter-Glo), RT4; format: cell-based; settings: Homo sapiens, RT-4, RT4 cells, 72 hours
Experimental: (§2) Compounds were tested proliferation assay in SNU-16, KATO-III, SNU-1, AGS, AN3CA, MFE280, MKN45, KLE, RT112-84, RT4, T24, UM-UC-3, KMS11, OPM-2, RAPI8226, U266, SUM 52PE, MCF7 and BaF3 cell lines. Test compounds were prepared in 10 mM DMSO stock solutions, add […] 1000× stock solution to 98 μL growth medium to get […] final concentration, 3-fold 9-points dilution was performed. Cell lines suspension of 95 μL were seeded into 96-well plate and incubated at 37° C. for 24 hours, add 5 μL 20× compounds solutions to 96-well plate according to the plate map with Echo550 liquid handler. Final DMSO concentration in each well is 0.1%, cell lines were incubated at 37° C. for 72 hours, then equilibrate the assay plate to room temperature before measurement, add 50 μL of CellTiter-Glo® Reagent into each well, mix contents for 2 minutes on an orbital shaker to induce cell lysis and incubate at room temperature for 10 minutes to stabilize luminescent signal, Chemiluminescence was then read on an EnVision reader. Inhibition Rate (Inh. %) was calculated relative to vehicle (DMSO) treated control wells using following formula: Inhibition Rate (Inh %)=100−(RLU compound−RLU blank)/(RLU control−RLU blank)*100%, Data were analyzed using Graphpad Prism 7.0, fitting to a 4-parameter equation to generate concentration response curves.

SNU-16 (FGFR2) = test: Cellular proliferation assay (CellTiter-Glo), SNU-16; format: cell-based; settings: Homo sapiens, SNU-16 cells, 72 hours
Experimental: as §2

[1] = enzyme pre-incubation 10 minutes (for Example 1)

T2 sequence (P22607 23-806): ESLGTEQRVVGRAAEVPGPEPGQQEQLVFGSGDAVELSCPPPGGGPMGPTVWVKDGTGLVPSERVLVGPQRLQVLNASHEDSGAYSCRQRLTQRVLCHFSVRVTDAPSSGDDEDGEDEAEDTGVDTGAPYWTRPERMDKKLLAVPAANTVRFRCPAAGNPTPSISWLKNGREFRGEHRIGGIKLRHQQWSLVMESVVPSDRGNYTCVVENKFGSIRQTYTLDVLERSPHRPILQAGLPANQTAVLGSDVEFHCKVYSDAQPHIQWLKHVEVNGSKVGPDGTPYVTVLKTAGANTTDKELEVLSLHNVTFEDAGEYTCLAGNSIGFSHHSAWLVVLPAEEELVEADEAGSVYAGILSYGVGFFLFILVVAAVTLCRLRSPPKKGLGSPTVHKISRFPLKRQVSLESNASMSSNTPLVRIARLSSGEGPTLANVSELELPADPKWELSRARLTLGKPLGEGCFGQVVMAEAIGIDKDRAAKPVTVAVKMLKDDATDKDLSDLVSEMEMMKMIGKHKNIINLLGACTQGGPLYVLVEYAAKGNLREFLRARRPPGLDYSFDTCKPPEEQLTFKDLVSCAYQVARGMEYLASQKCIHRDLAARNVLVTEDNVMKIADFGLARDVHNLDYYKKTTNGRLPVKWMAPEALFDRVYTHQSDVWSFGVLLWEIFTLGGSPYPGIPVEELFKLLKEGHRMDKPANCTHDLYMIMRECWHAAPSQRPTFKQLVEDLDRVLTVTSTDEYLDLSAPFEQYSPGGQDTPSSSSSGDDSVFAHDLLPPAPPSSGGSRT
T1 sequence (P21802 22-821): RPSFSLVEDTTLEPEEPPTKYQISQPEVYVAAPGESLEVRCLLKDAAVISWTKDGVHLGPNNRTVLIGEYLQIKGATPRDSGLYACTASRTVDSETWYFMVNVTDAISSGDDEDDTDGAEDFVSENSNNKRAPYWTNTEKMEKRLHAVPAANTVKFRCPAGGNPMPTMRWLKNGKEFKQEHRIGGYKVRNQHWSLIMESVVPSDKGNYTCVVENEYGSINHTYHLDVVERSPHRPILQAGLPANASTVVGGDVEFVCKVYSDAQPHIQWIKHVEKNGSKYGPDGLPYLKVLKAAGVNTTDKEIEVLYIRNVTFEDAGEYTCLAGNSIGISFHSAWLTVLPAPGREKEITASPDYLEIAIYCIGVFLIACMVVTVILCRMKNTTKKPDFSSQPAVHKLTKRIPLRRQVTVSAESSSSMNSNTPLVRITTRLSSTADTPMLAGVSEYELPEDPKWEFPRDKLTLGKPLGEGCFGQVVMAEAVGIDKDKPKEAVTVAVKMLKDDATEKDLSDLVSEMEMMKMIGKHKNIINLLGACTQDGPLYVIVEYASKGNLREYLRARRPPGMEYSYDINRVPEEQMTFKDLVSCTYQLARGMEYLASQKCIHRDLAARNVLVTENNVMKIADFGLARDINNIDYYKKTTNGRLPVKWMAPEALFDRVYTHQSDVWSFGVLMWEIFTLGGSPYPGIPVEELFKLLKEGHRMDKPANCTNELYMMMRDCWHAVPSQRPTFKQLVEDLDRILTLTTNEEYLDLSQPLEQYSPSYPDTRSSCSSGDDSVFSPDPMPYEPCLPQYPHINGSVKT
T3 sequence (P11362 22-822): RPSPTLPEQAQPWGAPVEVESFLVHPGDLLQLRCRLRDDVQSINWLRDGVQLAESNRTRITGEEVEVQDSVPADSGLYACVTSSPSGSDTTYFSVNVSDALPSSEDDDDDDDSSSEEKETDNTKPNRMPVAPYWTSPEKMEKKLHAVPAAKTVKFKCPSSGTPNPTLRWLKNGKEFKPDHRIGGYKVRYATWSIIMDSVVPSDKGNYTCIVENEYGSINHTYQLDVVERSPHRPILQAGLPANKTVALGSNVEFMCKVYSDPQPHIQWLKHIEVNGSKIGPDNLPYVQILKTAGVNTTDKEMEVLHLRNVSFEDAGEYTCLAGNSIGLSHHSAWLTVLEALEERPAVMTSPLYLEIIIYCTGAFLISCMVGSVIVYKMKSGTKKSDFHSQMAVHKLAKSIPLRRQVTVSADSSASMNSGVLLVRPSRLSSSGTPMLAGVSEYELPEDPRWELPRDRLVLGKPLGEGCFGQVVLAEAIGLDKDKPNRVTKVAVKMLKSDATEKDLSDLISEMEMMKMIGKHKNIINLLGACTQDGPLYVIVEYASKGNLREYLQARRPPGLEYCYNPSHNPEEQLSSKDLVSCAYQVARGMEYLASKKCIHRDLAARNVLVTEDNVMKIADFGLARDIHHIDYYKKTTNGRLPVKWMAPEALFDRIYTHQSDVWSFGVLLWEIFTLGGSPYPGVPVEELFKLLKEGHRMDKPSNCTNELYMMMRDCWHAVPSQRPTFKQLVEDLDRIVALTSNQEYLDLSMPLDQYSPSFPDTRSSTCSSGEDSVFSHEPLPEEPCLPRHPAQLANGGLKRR

| SMILES | IC50 (FGFR2; [1]) [nM] | IC50 (FGFR3; [1]) [nM] | IC50 (FGFR1; [1]) [nM] | IC50 (FGFR2; enzyme pre-incubation 60 min) [nM] | IC50 (FGFR3; enzyme pre-incubation 60 min) [nM] | IC50 (RT4 (FGFR3)) [nM] | IC50 (FGFR1; enzyme pre-incubation 60 min) [nM] | IC50 (SNU-16 (FGFR2)) [nM] |
| --- | --- | --- | --- | --- | --- | --- | --- | --- |
| C=CC(=O)Nc1ccc(-c2c(-c3ccc(Oc4cccc(C)n4)cc3)c(C(N)=O)n3cccnc23)cc1 [Example 1] | < 10 | 10 to 100 | 100 to 1000 | – | – | – | – | – |
| C=C(F)C(=O)Nc1ccc(-c2c(-c3ccc(Oc4nccc(C)n4)c(F)c3)c(C(N)=O)n3cc(CC)cnc23)cc1 [Example 7] | – | – | – | < 10 | 100 to 1000 | 10 to 100 | > 1000 | – |
| Cc1cnc2c(-c3ccc(NC(=O)/C=C/CNC4COC4)cc3)c(-c3ccc(Oc4nccc(C)n4)c(F)c3)c(C(N)=O)n2c1 [Example 22] | – | – | – | < 10 | 10 to 100 | 10 to 100 | 100 to 1000 | < 10 |
| C=C(F)C(=O)Nc1ccc(-c2c(-c3ccc(Oc4nccc(C)n4)cc3)c(C(N)=O)n3cc(C)cnc23)cc1 [Example 20] | – | – | – | < 10 | 10 to 100 | 10 to 100 | 100 to 1000 | < 10 |
| C=C(F)C(=O)Nc1ccc(-c2c(-c3ccc(Oc4nccc(C)n4)c(F)c3)c(C(N)=O)n3cc(-c4cnn(C)c4)cnc23)cc1 [Example 9] | – | – | – | < 10 | 100 to 1000 | – | 100 to 1000 | – |
| C=C(F)C(=O)Nc1ccc(-c2c(-c3ccc(Oc4nccc(C)n4)c(F)c3)c(C(N)=O)n3cc(C)cnc23)cc1 [Example 2] | – | – | – | < 10 | 10 to 100 | 10 to 100 | 100 to 1000 | < 10 |
| C=C(C)C(=O)Nc1ccc(-c2c(-c3ccc(Oc4nccc(C)n4)c(F)c3)c(C(N)=O)n3cc(C)cnc23)c(F)c1 [Example 19] | – | – | – | 10 to 100 | 100 to 1000 | – | > 1000 | – |
| C=C(F)C(=O)Nc1ccc(-c2c(-c3ccc(Oc4nccc(C)n4)c(F)c3)c(C(N)=O)n3cc(C#CC)cnc23)cc1 [Example 10] | – | – | – | 10 to 100 | 100 to 1000 | – | 100 to 1000 | – |
| Cc1cnc2c(-c3ccc(NC(=O)/C=C/CN4CC(O)C4)cc3)c(-c3ccc(Oc4nccc(C)n4)c(F)c3)c(C(N)=O)n2c1 [Example 23] | – | – | – | < 10 | < 10 | 100 to 1000 | 10 to 100 | 10 to 100 |
| C=C(F)C(=O)Nc1ccc(-c2c(-c3ccc(Oc4nccc(C)n4)c(F)c3)c(C(N)=O)n3ccc(C)nc23)cc1 [Example 4] | – | – | – | 10 to 100 | 100 to 1000 | 100 to 1000 | 100 to 1000 | 10 to 100 |
| C=C(F)C(=O)Nc1ccc(-c2c(-c3ccc(Oc4nccc(C)n4)c(F)c3)c(C(N)=O)n3cc(Cl)cnc23)cc1 [Example 16] | – | – | – | 10 to 100 | 100 to 1000 | – | 100 to 1000 | – |
| C=C(F)C(=O)Nc1ccc(-c2c(-c3ccc(Oc4nccc(C)n4)c(F)c3)c(C(N)=O)n3ccccc23)cc1 [Example 12] | – | – | – | < 10 | 10 to 100 | – | 100 to 1000 | – |
| C=C(F)C(=O)Nc1ccc(-c2c(-c3ccc(Oc4nccc(C)n4)cc3Cl)c(C(N)=O)n3cc(C)cnc23)cc1 [Example 15] | – | – | – | 100 to 1000 | 100 to 1000 | – | > 1000 | – |
| C=C(F)C(=O)Nc1ccc(-c2c(-c3ccc(Oc4nccc(C)n4)c(F)c3)c(C(N)=O)n3cccnc23)cc1 [Example 11] | – | – | – | < 10 | 10 to 100 | – | 100 to 1000 | – |
| C=C(F)C(=O)Nc1ccc(-c2c(-c3ccc(Oc4nccc(C)n4)c(F)c3)c(C(N)=O)n3cc(C4CC4)cnc23)cc1 [Example 5] | – | – | – | 10 to 100 | 10 to 100 | 10 to 100 | 100 to 1000 | 10 to 100 |
| Cc1cnc2c(-c3ccc(NC(=O)/C=C/CN(C)C)cc3)c(-c3ccc(Oc4nccc(C)n4)c(F)c3)c(C(N)=O)n2c1 [Example 14] | – | – | – | < 10 | 10 to 100 | 10 to 100 | 100 to 1000 | < 10 |
| C=C(F)C(=O)Nc1ccc(-c2c(-c3ccc(Oc4nccc(C)n4)c(F)c3)c(C(N)=O)n3cc(N4CCOCC4)cnc23)cc1 [Example 8] | – | – | – | < 10 | 10 to 100 | 10 to 100 | > 1000 | < 10 |
| Cc1cnc2c(-c3ccc(NC(=O)/C(F)=C/CN(C)C)cc3)c(-c3ccc(Oc4nccc(C)n4)c(F)c3)c(C(N)=O)n2c1 [Example 21] | – | – | – | 10 to 100 | 10 to 100 | – | > 1000 | – |
| C=C(F)C(=O)N1CCc2cc(-c3c(-c4ccc(Oc5nccc(C)n5)c(F)c4)c(C(N)=O)n4cc(C)cnc34)ccc21 [Example 17] | – | – | – | < 10 | < 10 | 10 to 100 | 100 to 1000 | < 10 |
| C=C(F)C(=O)Nc1ccc(-c2c(-c3ccc(Oc4nccc(C)n4)c(F)c3)c(C(N)=O)n3cc(C)cnc23)c(F)c1 [Example 18] | – | – | – | < 10 | < 10 | – | 10 to 100 | – |
| C=C(F)C(=O)Nc1ccc(-c2c(-c3ccc(Oc4nccc(C)n4)c(F)c3)c(C(N)=O)n3cc(C)ncc23)cc1 [Example 3] | – | – | – | < 10 | 10 to 100 | 10 to 100 | 100 to 1000 | < 10 |
| CC#CC(=O)Nc1ccc(-c2c(-c3ccc(Oc4nccc(C)n4)c(F)c3)c(C(N)=O)n3cc(C)cnc23)cc1 [Example 13] | – | – | – | < 10 | 10 to 100 | 10 to 100 | 100 to 1000 | < 10 |
| C=C(F)C(=O)Nc1ccc(-c2c(-c3ccc(Oc4nccc(C)n4)cc3)c(C(N)=O)n3cc(N4CCN(C)CC4)cnc23)cc1 [Example 6] | – | – | – | < 10 | 10 to 100 | – | 100 to 1000 | – |
